Results from US11999699B2, “Substituted pyrazole amides” (GRUENENTHAL GMBH, priority 2021, dated 2024).

Molecular target: T1, human NaV1.8 (Homo sapiens, UniProt Q9Y5Y9)
T1 construct: The following NaV1.8 recombinant cell line was used for recordings: HEK-NaV1.8 (NM 006514.1); expressed in transfected cells; host or cells: HEK (recombinant cell line HEK-NaV1.8)
Assay: Electrophysiology: automated whole-cell voltage-clamp (patch clamp, Qube384) recordings of sodium currents in HEK-NaV1.8 cells
Assay type: cell-based
Conditions: potency data either taken from inactivated or resting state, read-out: Potency category (human NaV1.8 IC50)
Summary of the method: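 Automated whole-cell patch clamp at room temperature on HEK cells expressing human NaV1.8, with 0.3% DMSO vehicle controls. State-dependent protocol from −120 mV tested resting (P1) and half-inactivated (P2, 4 s at V1/2) channels, plus 40-pulse trains at 10 and 20 Hz. Values after ~12 min compound exposure were normalised to baseline and corrected for vehicle run-down; IC50 from a 4-parameter logistic fit, taken from inactivated or resting state.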

T1 sequence (Q9Y5Y9 whole entry): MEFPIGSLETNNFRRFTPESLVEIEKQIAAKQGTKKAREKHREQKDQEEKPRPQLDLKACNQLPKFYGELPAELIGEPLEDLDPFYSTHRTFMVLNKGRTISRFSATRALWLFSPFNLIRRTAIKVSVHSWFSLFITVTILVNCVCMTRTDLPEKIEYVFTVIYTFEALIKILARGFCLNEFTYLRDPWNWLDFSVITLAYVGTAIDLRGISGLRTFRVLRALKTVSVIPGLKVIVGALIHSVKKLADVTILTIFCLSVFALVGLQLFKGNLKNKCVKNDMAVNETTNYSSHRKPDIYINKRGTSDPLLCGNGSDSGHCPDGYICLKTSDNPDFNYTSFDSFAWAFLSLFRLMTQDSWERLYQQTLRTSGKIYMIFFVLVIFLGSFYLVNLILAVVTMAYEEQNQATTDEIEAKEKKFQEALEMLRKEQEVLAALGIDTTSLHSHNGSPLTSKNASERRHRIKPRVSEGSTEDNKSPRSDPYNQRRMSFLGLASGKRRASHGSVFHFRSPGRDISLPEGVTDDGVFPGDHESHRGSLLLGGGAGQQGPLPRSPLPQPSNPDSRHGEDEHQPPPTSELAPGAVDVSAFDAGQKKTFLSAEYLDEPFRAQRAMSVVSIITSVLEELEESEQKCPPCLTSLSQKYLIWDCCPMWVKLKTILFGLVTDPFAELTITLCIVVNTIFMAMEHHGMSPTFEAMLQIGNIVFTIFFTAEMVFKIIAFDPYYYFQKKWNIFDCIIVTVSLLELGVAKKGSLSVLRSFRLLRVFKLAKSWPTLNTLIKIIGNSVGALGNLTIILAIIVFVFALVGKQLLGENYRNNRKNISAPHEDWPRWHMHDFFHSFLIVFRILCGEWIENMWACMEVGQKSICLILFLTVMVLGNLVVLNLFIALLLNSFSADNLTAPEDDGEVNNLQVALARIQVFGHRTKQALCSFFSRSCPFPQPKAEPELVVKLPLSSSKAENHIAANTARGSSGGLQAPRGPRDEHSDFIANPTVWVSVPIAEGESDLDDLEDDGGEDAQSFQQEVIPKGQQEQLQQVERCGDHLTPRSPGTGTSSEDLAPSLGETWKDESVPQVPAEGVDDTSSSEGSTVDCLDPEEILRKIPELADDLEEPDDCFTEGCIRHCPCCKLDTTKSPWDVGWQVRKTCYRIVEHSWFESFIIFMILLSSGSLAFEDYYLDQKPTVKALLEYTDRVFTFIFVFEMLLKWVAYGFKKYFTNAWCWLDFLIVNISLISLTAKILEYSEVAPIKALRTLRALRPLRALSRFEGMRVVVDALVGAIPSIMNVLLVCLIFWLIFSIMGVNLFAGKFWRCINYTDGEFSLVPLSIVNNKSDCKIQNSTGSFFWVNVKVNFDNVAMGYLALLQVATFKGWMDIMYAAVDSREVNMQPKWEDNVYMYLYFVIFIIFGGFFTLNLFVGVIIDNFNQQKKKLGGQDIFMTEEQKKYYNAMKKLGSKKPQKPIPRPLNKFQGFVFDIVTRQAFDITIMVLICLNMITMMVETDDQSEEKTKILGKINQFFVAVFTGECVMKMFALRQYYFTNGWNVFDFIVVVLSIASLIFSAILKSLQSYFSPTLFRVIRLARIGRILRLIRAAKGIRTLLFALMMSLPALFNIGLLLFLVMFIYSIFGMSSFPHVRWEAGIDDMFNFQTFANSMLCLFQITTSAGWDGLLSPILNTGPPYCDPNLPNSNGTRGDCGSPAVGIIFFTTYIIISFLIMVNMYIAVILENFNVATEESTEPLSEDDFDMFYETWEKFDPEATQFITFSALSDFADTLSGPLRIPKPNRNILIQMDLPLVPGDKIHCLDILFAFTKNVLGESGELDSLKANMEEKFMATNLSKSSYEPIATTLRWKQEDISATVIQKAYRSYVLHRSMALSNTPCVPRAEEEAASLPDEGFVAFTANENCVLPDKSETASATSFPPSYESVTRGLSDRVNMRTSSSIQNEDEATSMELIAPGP
T1 sequence (Q9NY72 23-215 partner): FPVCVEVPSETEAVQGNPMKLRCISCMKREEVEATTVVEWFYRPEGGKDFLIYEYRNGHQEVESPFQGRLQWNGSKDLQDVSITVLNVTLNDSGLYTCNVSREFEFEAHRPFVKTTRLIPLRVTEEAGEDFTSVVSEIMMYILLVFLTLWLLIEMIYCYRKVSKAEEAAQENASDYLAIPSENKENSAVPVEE

Structure (SMILES): NC(=O)c1cc(NC(=O)c2c(OCC(F)(F)F)c(C3CC3)nn2CC2CCC(F)(F)C2)ccn1 (stereo not shown) [SC-298, 4-(3-cyclopropyl-1-((3,3-difluorocyclopentyl)methyl)-4-(2,2,2-trifluoroethoxy)-1H-pyrazole-5-carboxamido)picolinamide]
- IC50: 1000 to 10000 nM

Structure (SMILES): Cc1c(C(C)(F)F)nn(CC2(C(F)(F)F)CC(F)(F)C2)c1C(=O)Nc1ccnc(C(N)=O)c1 [SC-299, 4-(1-((3,3-difluoro-1-(trifluoromethyl)cyclobutyl)methyl)-3-(1,1-difluoroethyl)-4-methyl-1H-pyrazole-5-ca±oxamido)picolinamide]
- IC50: ≤ 100 nM

Structure (SMILES): Cc1c(C(C)(F)F)nn(C[C@H]2C[C@@H](F)C2)c1C(=O)Nc1ccnc(C(N)=O)c1 [SC-301, 4-(3-(1,1-difluoroethyl)-1-((3-fluorocyclobutyl)methyl)-4-methyl-1H-pyrazole-5-carboxamido)picolinamide]
- IC50: 100 to 1000 nM

Structure (SMILES): CCc1nn(CC2CC(F)(F)C2)c(C(=O)Nc2ccnc(S(C)(=O)=O)c2)c1C [SC-302, 1-((3,3-difluorocyclobutyl)methyl)-3-ethyl-4-methyl-N-(2-(methylsulfonyl)pyridin-4-yl)-1H-pyrazole-5-carboxamide]
- IC50: 100 to 1000 nM

Structure (SMILES): C[S+]([O-])c1cc(NC(=O)c2c(C(F)(F)F)c(C(C)(F)F)nn2CC2CC(F)(F)C2)ccn1 (stereo not shown) [SC-303, 1-((3,3-difluorocyclobutyl)methyl)-3-(1,1-difluoroethyl)-N-(2-(methylsulfinyl)pyridin-4-yl)-4-(trifluoromethyl)-1H-pyrazole-5-carboxamide]
- IC50: ≤ 100 nM

Structure (SMILES): Cc1nn(CC2CCC(F)(F)C2)c(C(=O)Nc2cccc(S(N)(=O)=O)c2)c1OC(F)(F)F (stereo not shown) [SC-304, 1-((3,3-difluorocyclopentyl)methyl)-3-methyl-N-(3-sulfamoyiphenyl)-4-(trifluoromethoxy)-1H-pyrazole-5-carboxamide]
- IC50: 100 to 1000 nM

Structure (SMILES): CS(=O)(=O)c1cc(NC(=O)c2c(CC(F)(F)F)c(C3CC3)nn2CC2CCOCC2)ccn1 [SC-305, 3-cyclopropyl-N-(2-(methylsulfonyl)pyridin-4-yl)-1-((tetrahydro-2H-pyran-4-yl)methyl)-4-(2,2,2-trifluoroethyl)-1H-pyrazole-5-carboxamide]
- IC50: 1000 to 10000 nM

Structure (SMILES): COC1(Cn2nc(C(C)(F)F)c(C)c2C(=O)Nc2ccnc(S(N)(=O)=O)c2)CC1 [SC-308, 3-(1,1-difluoroethyl)-1-((1-methoxycyclopropyl)methyl)-4-methyl-N-(2-sulfamoylpyridin-4-yl)-1H-pyrazole-5-carboxamide]
- IC50: 1000 to 10000 nM

Structure (SMILES): Cc1c(OC(C)(F)F)nn(CC2CC(F)(F)C2)c1C(=O)Nc1ccnc(C(N)=O)c1 [SC-309, 4-(1-((3,3-difluorocyclobutyl)methyl)-3-(1,1-difluoroethoxy)-4-methyl-1H-pyrazole-5-carboxamido)picolinamide]
- IC50: 1000 to 10000 nM

Structure (SMILES): Cc1c(C(C)(F)F)nn(CC2(F)CC2)c1C(=O)Nc1ccnc(S(N)(=O)=O)c1 [SC-310, 3-(1,1-difluoroethyl)-1-((1-fluorocyclopropyl)methyl)-4-methyl-N-(2-sulfamoylpyridin-4-yl)-lH-pyrazole-5-carboxamide]
- IC50: 100 to 1000 nM

Structure (SMILES): Cc1c(C(C)(F)F)nn(CC2(C(F)F)CC(F)(F)C2)c1C(=O)Nc1ccnc(C(N)=O)c1 [SC-311, 4-(3-(1,1-difluoroethyl)-1-((1-(difluoromethyl)-3,3-difluorocyclobutyl)methyl)-4-methyl-1H-pyrazole-5-carboxamido)picolinamide]
- IC50: ≤ 100 nM

Structure (SMILES): Cc1c(C(C)(F)F)nn(CC2(C)CC2)c1C(=O)Nc1ccnc(S(N)(=O)=O)c1 [SC-313, 3-(1,1-difluoroethyl)-4-methyl-1-((1-methyleyelopropyl)methyl)-N-(2-sulfamoylpyridin-4-yl)-lH-pyrazole-5-carboxamide]
- IC50: ≤ 100 nM

Structure (SMILES): Cc1c(C(C)(F)F)nn(CC2C[C@H]2C)c1C(=O)Nc1ccnc(S(N)(=O)=O)c1 (stereo partly shown) [SC-314, 3-(1,1-difluoroethyl)-4-methyl-1-((2-methyleyelopropyl)methyl)-N-(2-sulfamoylpyridin-4-yl)-lH-pyrazole-5-carboxamide]
- IC50: ≤ 100 nM

Structure (SMILES): Cc1c(C(C)(F)F)nn(CC2(C(F)F)CC(F)(F)C2)c1C(=O)Nc1ccnc(S(N)(=O)=O)c1 [SC-316, 3-(1,1-difluoroethyl)-1-((1-(difluoromethyl)-3,3-difluorocyclobutyl)methyl)-4-methyl-N-(2-sulfamoylpyridin-4-yl)-1H-pyrazole-5-carboxamide]
- IC50: ≤ 100 nM

Structure (SMILES): Cc1c(C(C)(F)F)nn(CC2(C)CCO2)c1C(=O)Nc1ccnc(S(N)(=O)=O)c1 (stereo not shown) [SC-317, 3-(1,1-difluoroethyl)-4-methyl-1-((2-methyloxetan-2-yl)methyl)-N-(2-sulfamoylpyridin-4-yl)-lH-pyrazole-5-carboxamide]
- IC50: 1000 to 10000 nM

Structure (SMILES): Cc1c(OC(F)(F)F)nn(CC2CC(F)(F)C2)c1C(=O)Nc1ccnc(C(N)=O)c1 [SC-318, 4-(1-((3,3-difluorocyclobutyl)methyl)-4-methyl-3-(trifluoromethoxy)-1H-pyrazole-5-carboxamido)picolinamide]
- IC50: 100 to 1000 nM

Structure (SMILES): Cc1c(C(F)(F)F)nn(CC2CCC(F)(F)CC2)c1C(=O)Nc1ccnc(S(N)(=O)=O)c1 [SC-320, 1-((4,4-difluorocyclohexyl)methyl)-4-methyl-N-(2-sulfamoylpyridin-4-yl)-3-(trifluoromethyl)-1H-pyrazole-5-carboxamide]
- IC50: ≤ 100 nM

Structure (SMILES): Cc1nn(CC2CCC(F)(F)CC2)c(C(=O)Nc2cnnc(C(N)=O)c2)c1C(F)(F)F [SC-321, 5-(1-((4,4-difluorocyclohexyl)methyl)-3-methyl-4-(trifluoromethyl)-1H-pyrazole-5-carboxamido)pyridazine-3-carboxamide]
- IC50: 100 to 1000 nM

Structure (SMILES): CS(=O)(=O)c1cc(NC(=O)c2c(OC(F)F)c(C3CC3)nn2CC2CCOCC2)ccn1 [SC-322, 3-cyclopropyl-4-(difluoromethoxy)-N-(2-(methylsulfonyl)pyridin-4-yl)-1-((tetrahydro-2H-pyran-4-yl)methyl)-1H-pyrazole-5-carboxamide]
- IC50: 1000 to 10000 nM

Structure (SMILES): Cc1c(OC(F)F)nn(CC2CC(F)(F)C2)c1C(=O)Nc1ccnc(S(C)(=O)=O)c1 [SC-323, 1-((3,3-difluorocyclobutyl)methyl)-3-(difluoromethoxy)-4-methyl-N-(2-(methylsulfonyl)pyridin-4-yl)-1H-pyrazole-5-carboxamide]
- IC50: 100 to 1000 nM

Structure (SMILES): NC(=O)c1cc(NC(=O)c2c(C(F)(F)F)c(C(F)F)nn2CC2CC(F)(F)C2)ccn1 [SC-324, 4-(1-((3,3-difluorocyclobutyl)methyl)-3-(difluoromethyl)-4-(trifluoromethyl)-1H-pyrazole-5-carboxamido)picolinamide]
- IC50: ≤ 100 nM

Structure (SMILES): NC(=O)c1cc(NC(=O)c2c(C(F)(F)F)c(C(F)F)nn2CC2CCC(F)(F)C2)ccn1 (stereo not shown) [SC-325, 4-(1-((3,3-difluorocyclopentyl)methyl)-3-(difluoromethyl)-4-(trifluoromethyl)-1H-pyrazole-5-carboxamido)picolinamide]
- IC50: ≤ 100 nM
